Reference: patent publication US12577228B2, “Dihydrocyclopenta-isoquinoline-sulfonamide derivatives compounds” (UCB Biopharma SRL, priority 2019, dated 2026)

What follows are molecules tested against T1, IgE-Tb / soluble IgE receptor FcεRIα with a Y131A mutation (Homo sapiens, UniProt P01854, N146Q/N252Q) (assay: in vitro FRET assay: binding of IgE-Tb to receptor FcεRIα-Y131A-AF488 and its inhibition by compounds). Details: 5 nM IgE-Tb, 25 nM FcεRIα-Y131A-AF488, 2 hours at room temperature; read-out: FRET IC50 range.
T1 construct: fused on or other part: Terbium chelate (LanthaScreen amine-reactive) on IgE-Fc; Alexa Fluor 488 hydrazide on the oxidised glycans of sFcεRIα; Both are labels and no part of the key
T1 sequence (P01854 104-427 N146Q/N252Q): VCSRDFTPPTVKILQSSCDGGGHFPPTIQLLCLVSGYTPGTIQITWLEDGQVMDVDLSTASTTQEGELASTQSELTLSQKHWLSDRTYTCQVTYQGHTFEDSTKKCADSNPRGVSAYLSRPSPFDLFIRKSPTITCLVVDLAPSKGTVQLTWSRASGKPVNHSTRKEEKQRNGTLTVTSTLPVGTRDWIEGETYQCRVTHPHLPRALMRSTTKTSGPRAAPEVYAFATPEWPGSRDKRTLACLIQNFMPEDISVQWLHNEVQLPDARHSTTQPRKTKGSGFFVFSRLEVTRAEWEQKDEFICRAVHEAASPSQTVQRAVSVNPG
T1 sequence (P12319 26-201 Y156A partner): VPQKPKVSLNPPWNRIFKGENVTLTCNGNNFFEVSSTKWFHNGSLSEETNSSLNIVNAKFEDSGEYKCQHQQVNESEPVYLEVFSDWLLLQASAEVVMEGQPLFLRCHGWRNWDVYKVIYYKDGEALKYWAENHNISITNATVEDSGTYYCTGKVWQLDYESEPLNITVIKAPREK

Row | Compound | IC50
1 | Cc1cc(Nc2nncn2C2Cc3cc4cnc(C5CC5)cc4c(S(=O)(=O)NCC(C)(C)F)c3C2)n(C)n1 (stereo not shown) [Example 57, 3-cyclopropyl-7-[3-[(2,5-dimethylpyrazol-3-yl)amino]-1,2,4-triazol-4-yl]-N-(2-fluoro-2-methylpropyl)-7,8-dihydro-6H-cyclopenta[g]isoquinoline-5-sulfonamide] | 100 to 2000 nM
2 | Cc1nnc(-c2ccc(NC3Cc4cc5nnc(C6CC6)cc5c(S(=O)(=O)NCC(C)(C)F)c4C3)cn2)o1 (stereo not shown) [Example 66, 3-cyclopropyl-N-(2-fluoro-2-methylpropyl)-7-[[6-(5-methyl-1,3,4-oxadiazol-2-yl)pyridin-3-yl]amino]-7,8-dihydro-6H-cyclopenta[g]cinnoline-5-sulfonamide] | 10 to 50 nM
3 | CC(C)CNS(=O)(=O)c1c2c(cc3cnc(C4CC4)cc13)CC(NS(C)(=O)=O)C2 (stereo not shown) [Example 55, 3-cyclopropyl-7-(methanesulfonamido)-N-(2-methylpropyl)-7,8-dihydro-6H-cyclopenta[g]isoquinoline-5-sulfonamide] | 50 to 100 nM
4 | CC(C)(F)CNS(=O)(=O)c1c2c(cc3cnc(C4CC4)cc13)CC(c1cccnc1)C2 (stereo not shown) [Example 110, 3-cyclopropyl-N-(2-fluoro-2-methylpropyl)-7-pyridin-3-yl-7,8-dihydro-6H-cyclopenta[g]isoquinoline-5-sulfonamide] | 100 to 2000 nM
5 | CC(C)(F)CNS(=O)(=O)c1c2c(cc3cnc(C4CC4)cc13)C[C@@H](NC(=O)c1c[nH]c3ccccc13)C2 [Example 130, N-[(7R)-3-cyclopropyl-5-[(2-fluoro-2-methylpropyl)sulfamoyl]-7,8-dihydro-6H-cyclopenta[g]isoquinolin-7-yl]-1H-indole-3-carboxamide] | 10 to 50 nM
6 | CC(C)(F)CNS(=O)(=O)c1c2c(cc3cnc(C4CC4)cc13)CC(Nc1cncnc1Nc1cccnc1)C2 (stereo not shown) [Example 18, 3-cyclopropyl-N-(2-fluoro-2-methylpropyl)-7-[[4-(pyridin-3-ylamino)pyrimidin-5-yl]amino]-7,8-dihydro-6H-cyclopenta[g]isoquinoline-5-sulfonamide] | 1 to 10 nM
7 | CC(C)(F)CNS(=O)(=O)c1c2c(cc3cnc(C4CC4)cc13)CC(Nc1nc3ccccc3[nH]1)C2 (stereo not shown) [Example 20, 7-(1H-benzimidazol-2-ylamino)-3-cyclopropyl-N-(2-fluoro-2-methylpropyl)-7,8-dihydro-6H-cyclopenta[g]isoquinoline-5-sulfonamide] | 10 to 50 nM
8 | CC(C)(F)CNS(=O)(=O)c1c2c(cc3cnc(C4CC4)cc13)C[C@@H](Nc1ccc(CO)nc1)C2 [Example 12, (7R)-3-cyclopropyl-N-(2-fluoro-2-methylpropyl)-7-[[6-(hydroxymethyl)pyridin-3-yl]amino]-7,8-dihydro-6H-cyclopenta[g]isoquinoline-5-sulfonamide] | 10 to 50 nM
9 | CC1(C)CC1NS(=O)(=O)c1c2c(cc3cnc(C4CC4)cc13)CC(C(=O)Nc1cccnc1)C2 (stereo not shown) [Example 81, 3-cyclopropyl-5-[(2,2-dimethylcyclopropyl)sulfamoyl]-N-pyridin-3-yl-7,8-dihydro-6H-cyclopenta[g]isoquinoline-7-carboxamide] | 100 to 2000 nM
10 | CC(C)(F)CNS(=O)(=O)c1c2c(cc3cnc(C4CC4)cc13)CC(CO)(Nc1nncn1-c1cccnc1)C2 (stereo not shown) [Example 50, 3-cyclopropyl-N-(2-fluoro-2-methylpropyl)-7-(hydroxymethyl)-7-[(4-pyridin-3-yl-1,2,4-triazol-3-yl)amino]-6,8-dihydrocyclopenta[g]isoquinoline-5-sulfonamide] | 100 to 2000 nM
11 | Cc1nnc(-c2ncc(N[C@@H]3Cc4cc5cnc(C6CC6)cc5c(S(=O)(=O)NCC(C)(C)F)c4C3)cn2)o1 [Example 129, (7R)-3-cyclopropyl-N-(2-fluoro-2-methylpropyl)-7-[[2-(5-methyl-1,3,4-oxadiazol-2-yl)pyrimidin-5-yl]amino]-7,8-dihydro-6H-cyclopenta[g]isoquinoline-5-sulfonamide] | 10 to 50 nM
12 | CC(C)(F)CNS(=O)(=O)c1c2c(cc3cnc(C4CC4)cc13)CN(Cc1cccnc1)C2 [Example 91, 7-cyclopropyl-N-(2-fluoro-2-methyl-propyl)-2-(3-pyridylmethyl)-1,3-dihydropyrrolo[3,4-g]isoquinoline-9-sulfonamide; formic acid] | 100 to 2000 nM
13 | CC(C)CNS(=O)(=O)c1c2c(cc3cnc(C4CC4)cc13)CC1(c3ncc(-c4cccnc4)[nH]3)CC21 (stereo not shown) [Example 2, 13-cyclopropyl-˜{N}-(2-methylpropyl)-6-(5-pyridin-3-yl-1˜{H}-imidazol-2-yl)-12-azatetracyclo[8.4.0.0^{3,8}.0^{4,6}]tetradeca-1,3 (8),9,11,13-pentaene-2-sulfonamide] | 10 to 50 nM
14 | CC(C)(F)CNS(=O)(=O)c1c2c(cc3cnc(C4CC4)cc13)CN(c1cccnc1N)C2 [Example 51, 2-(2-aminopyridin-3-yl)-7-cyclopropyl-N-(2-fluoro-2-methylpropyl)-1,3-dihydropyrrolo[3,4-g]isoquinoline-9-sulfonamide] | 100 to 2000 nM
15 | COC(=O)c1ccc(NC2Cc3cc4c(F)nc(C5CC5)cc4c(S(=O)(=O)NCC(C)(C)F)c3C2)cn1 (stereo not shown) [Example 24, methyl 5-[[3-cyclopropyl-1-fluoro-5-[(2-fluoro-2-methyl-propyl)sulfamoyl]-7,8-dihydro-6H-cyclopenta[g]isoquinolin-7-yl]amino]pyridine-2-carboxylate] | 10 to 50 nM
16 | Cn1ccc(-c2ccc(N[C@@H]3Cc4cc5cnc(C6CC6)cc5c(S(=O)(=O)NCC(C)(C)F)c4C3)cn2)n1 [Example 108, (7R)-3-cyclopropyl-N-(2-fluoro-2-methylpropyl)-7-[[6-(1-methylpyrazol-3-yl)pyridin-3-yl]amino]-7,8-dihydro-6H-cyclopenta[g]isoquinoline-5-sulfonamide] | 10 to 50 nM
17 | Cc1nc(C2CC2)cc2c(S(=O)(=O)NCC(C)C)c3c(cc12)CCC3 [Example 67, 3-cyclopropyl-1-methyl-N-(2-methylpropyl)-7,8-dihydro-6H-cyclopenta[g]isoquinoline-5-sulfonamide] | 100 to 2000 nM
18 | CC(C)NC(=O)c1ccc(N[C@@H]2Cc3cc4cnc(C5CC5)cc4c(S(=O)(=O)NCC(C)(C)F)c3C2)cn1 [Example 77, 5-[[(7R)-3-cyclopropyl-5-[(2-fluoro-2-methylpropyl)sulfamoyl]-7,8-dihydro-6H-cyclopenta[g]isoquinolin-7-yl]amino]-N-propan-2-ylpyridine-2-carboxamide] | 10 to 50 nM
19 | CCNC(=O)CN1Cc2cc3cnc(C4CC4)cc3c(S(=O)(=O)NCC(C)C)c2C1 [Example 59, 2-[7-cyclopropyl-9-(2-methylpropylsulfamoyl)-1,3-dihydropyrrolo[3,4-g]isoquinolin-2-yl]-N-ethylacetamide] | 100 to 2000 nM
20 | CC(C)CNS(=O)(=O)c1c2c(cc3cnc(C4CC4)cc13)CCC2 [Example 69, 3-cyclopropyl-N-isobutyl-7,8-dihydro-6H-cyclopenta[g]isoquinoline-5-sulfonamide] | 50 to 100 nM
21 | CC(C)(F)CNS(=O)(=O)c1c2c(cc3cnc(C4CC4)cc13)C[C@@H](Nc1ccc(Cl)nc1)C2 [Example 32, (7R)-7-[(6-chloropyridin-3-yl)amino]-3-cyclopropyl-N-(2-fluoro-2-methylpropyl)-7,8-dihydro-6H-cyclopenta[g]isoquinoline-5-sulfonamide] | 10 to 50 nM
22 | CC(C)(F)CNS(=O)(=O)c1c2c(cc3cnc(C4CC4)cc13)C[C@@H](Nc1ccc(C3(O)COC3)nc1)C2 [Example 38, (7R)-3-cyclopropyl-N-(2-fluoro-2-methylpropyl)-7-[[6-(3-hydroxyoxetan-3-yl)pyridin-3-yl]amino]-7,8-dihydro-6H-cyclopenta[g]isoquinoline-5-sulfonamide] | 10 to 50 nM
23 | CC(C)(F)CNS(=O)(=O)c1c2c(cc3cnc(C4CC4)cc13)CC(Nc1cncc(S(C)(=O)=O)c1)C2 (stereo not shown) [Example 123, 3-cyclopropyl-N-(2-fluoro-2-methylpropyl)-7-[(5-methylsulfonylpyridin-3-yl)amino]-7,8-dihydro-6H-cyclopenta[g]isoquinoline-5-sulfonamide] | 10 to 50 nM
24 | CC(C)(F)CNS(=O)(=O)c1c2c(cc3cnc(C4CC4)cc13)C[C@@H](NC(=O)c1n[nH]c3cc(Br)ccc13)C2 [Example 141, 6-bromo-N-[(7R)-3-cyclopropyl-5-[(2-fluoro-2-methylpropyl)sulfamoyl]-7,8-dihydro-6H-cyclopenta[g]isoquinolin-7-yl]-1H-indazole-3-carboxamide] | 100 to 2000 nM
25 | CC(C)(C)OC(=O)c1ccc(N[C@@H]2Cc3cc4cnc(C5CC5)cc4c(S(=O)(=O)NC4CC(F)(F)C4)c3C2)cn1 [Example 85, tert-butyl 5-[[(7R)-3-cyclopropyl-5-[(3,3-difluorocyclobutyl)sulfamoyl]-7,8-dihydro-6H-cyclopenta[g]isoquinolin-7-yl]amino]pyridine-2-carboxylate] | 10 to 50 nM
26 | CC(C)(F)CNS(=O)(=O)c1c2c(cc3cnc(C4CC4)cc13)C[C@@H](Nc1cnc(Cl)cc1OCC1CC1)C2 [Example 119, (7R)-7-[[6-chloro-4-(cyclopropylmethoxy)pyridin-3-yl]amino]-3-cyclopropyl-N-(2-fluoro-2-methylpropyl)-7,8-dihydro-6H-cyclopenta[g]isoquinoline-5-sulfonamide] | 50 to 100 nM
27 | CC1(CNS(=O)(=O)c2c3c(cc4cnc(C5CC5)cc24)CC(C(=O)Nc2cccnc2)C3)COC1 (stereo not shown) [Example 9, 3-cyclopropyl-5-[(3-methyloxetan-3-yl)methylsulfamoyl]-N-pyridin-3-yl-7,8-dihydro-6H-cyclopenta[g]isoquinoline-7-carboxamide] | 100 to 2000 nM
28 | CC(C)(F)CNS(=O)(=O)c1c2c(cc3cnc(C4CC4)cc13)CC1CC21 (stereo not shown) [Example 107, 13-cyclopropyl-N-(2-fluoro-2-methylpropyl)-12-azatetracyclo[8.4.0.03,8.04,6]tetradeca-1 (10),2,8,11,13-pentaene-2-sulfonamide] | 100 to 2000 nM
